Reference: article PMC7076388 (Pharmaceutics, 2020)
Entries after “also recorded” stand apart in the source; their conditions may differ. Like-named read-outs stand apart in the source and are kept apart here.

Tests used:
[1] = biological target: T1, LOX from glycine max (soybean) (Glycine max, UniProt P08170); experiment: Lipoxygenase glycine max (soybean) assay; type: biochemical; conditions: for IC50: dose-response assay, read-out: IC50 for LOX inhibition; for LOX inhibition at single concentration: 100 µM
T1 construct: purchased Sigma-Aldrich
T1 sequence (P08170 1-839): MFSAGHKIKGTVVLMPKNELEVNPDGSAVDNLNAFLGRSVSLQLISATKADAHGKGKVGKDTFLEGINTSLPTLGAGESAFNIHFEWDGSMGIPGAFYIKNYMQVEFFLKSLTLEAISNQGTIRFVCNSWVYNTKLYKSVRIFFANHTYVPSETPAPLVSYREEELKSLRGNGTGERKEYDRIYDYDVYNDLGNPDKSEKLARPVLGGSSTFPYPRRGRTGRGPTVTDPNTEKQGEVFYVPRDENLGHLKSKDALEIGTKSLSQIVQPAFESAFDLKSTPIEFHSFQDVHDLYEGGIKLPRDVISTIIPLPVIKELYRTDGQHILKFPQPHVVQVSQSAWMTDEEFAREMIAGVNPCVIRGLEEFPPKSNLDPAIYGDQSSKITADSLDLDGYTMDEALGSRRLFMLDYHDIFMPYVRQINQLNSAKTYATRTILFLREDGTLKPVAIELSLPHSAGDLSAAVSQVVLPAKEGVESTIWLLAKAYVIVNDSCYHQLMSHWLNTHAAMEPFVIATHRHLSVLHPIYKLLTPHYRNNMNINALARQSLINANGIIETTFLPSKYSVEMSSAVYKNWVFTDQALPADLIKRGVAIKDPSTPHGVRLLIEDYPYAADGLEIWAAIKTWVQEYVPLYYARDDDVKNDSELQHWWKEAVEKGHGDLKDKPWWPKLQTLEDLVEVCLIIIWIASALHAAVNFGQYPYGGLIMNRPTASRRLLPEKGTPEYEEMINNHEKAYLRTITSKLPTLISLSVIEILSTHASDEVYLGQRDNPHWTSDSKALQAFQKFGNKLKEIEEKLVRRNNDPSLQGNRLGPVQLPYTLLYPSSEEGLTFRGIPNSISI
Protocol: The inhibitory effect on LOX was assessed in 96-well plates, using a modified version of a previously reported procedure from Pereira et al.. […] After 5 min pre-incubation at room temperature, the reaction was started by addition of linoleic acid substrate (20 µL of a 4.18 mM solution in ethanol). The reaction was monitored at 234 nm using a multiplate reader (Multiskan Thermo Fisher Scientific Oy, Vantaa, Finland), for 3 min.

AGS cells = experiment: MTT cell viability, AGS cells; type: cell-based; conditions: 24 h; for toxicity towards AGS cells: 100 µM
Protocol: (§1) Adenocarcinoma gastric cells (AGS; Sigma-Aldrich, St. Louis, MO, USA), murine-macrophage cell line (RAW 264.7; American Type Culture Collection, LGC Standards S.L.U., Barcelona, Spain), and human foetal lung fibroblasts (MRC-5; ECACC, Porton Down Salisbury, UK) were cultured as a monolayer at 37 °C in a humidified incubator with 5% carbon dioxide. AGS and RAW 264.7 cells were grown in DMEM, supplemented with 1% streptomycin/penicillin and 10% FBS (Gibco®). MRC-5 cells were grown in MEM, supplemented with 1% streptomycin/penicillin and 10% FBS.
(§2) Cell viability was evaluated by the MTT reduction assay. Cells were cultured in 96-well plates (15,000 cells/well for AGS, 25,000 cells/well for RAW and 20,000 cells/well for MRC-5) and allowed to attach for 24 h. After incubation with compounds for 24 h, MTT (0.5 mg/mL final concentration) was added to each well and the plate was incubated for 75 min at 37 °C. Formazan crystals were dissolved by the addition of a DMSO: isopropanol mixture (3:1) and then quantified spectrophotometrically at 570 nm using a microplate reader (Multiskan Thermo Fisher Scientific Oy, Vantaa, Finland).

RAW 264.7 cells [2] = tested on: RAW 264.7 cells; design: method as in PMID 30987203; conditions: up to 100 µM, 24 h, MTT; cited from earlier work
[3] = tested on: LPS-induced •NO production in RAW 264.7 cells; conditions: preliminary study; cited from earlier work
[4] = biological target: T1, LOX from glycine max (soybean); design: method as in PMID 30987203; conditions: 100 µM; cited from earlier work
COX-1 [5] = biological target: T2, COX-1 (Ovis aries, UniProt P05979); design: method as in PMID 30987203; conditions: 25 µM; cited from earlier work
T2 construct: purchased Cayman Chemical
T2 sequence (P05979 25-600): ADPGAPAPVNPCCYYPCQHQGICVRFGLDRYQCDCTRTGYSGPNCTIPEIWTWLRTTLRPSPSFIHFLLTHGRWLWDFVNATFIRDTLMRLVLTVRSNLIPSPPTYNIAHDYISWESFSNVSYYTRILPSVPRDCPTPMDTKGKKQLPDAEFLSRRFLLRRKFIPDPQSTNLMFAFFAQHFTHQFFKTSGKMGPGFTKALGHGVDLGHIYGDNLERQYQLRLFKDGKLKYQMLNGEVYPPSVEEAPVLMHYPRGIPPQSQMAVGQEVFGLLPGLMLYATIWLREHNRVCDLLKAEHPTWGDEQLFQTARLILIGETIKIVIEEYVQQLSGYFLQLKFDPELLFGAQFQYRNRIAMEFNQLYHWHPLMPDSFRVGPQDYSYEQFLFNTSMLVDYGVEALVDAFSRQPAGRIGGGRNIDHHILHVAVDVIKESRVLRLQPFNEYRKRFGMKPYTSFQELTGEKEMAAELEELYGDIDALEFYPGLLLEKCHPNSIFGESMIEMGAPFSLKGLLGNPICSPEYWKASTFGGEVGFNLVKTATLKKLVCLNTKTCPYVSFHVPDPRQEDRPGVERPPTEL

COX-2 [6] = biological target: T3, COX-2 (Homo sapiens, UniProt P35354); design: method as in PMID 30987203; conditions: 25 µM; low selectivity towards COX-2; cited from earlier work
T3 construct: purchased Cayman Chemical
T3 sequence (P35354 18-604): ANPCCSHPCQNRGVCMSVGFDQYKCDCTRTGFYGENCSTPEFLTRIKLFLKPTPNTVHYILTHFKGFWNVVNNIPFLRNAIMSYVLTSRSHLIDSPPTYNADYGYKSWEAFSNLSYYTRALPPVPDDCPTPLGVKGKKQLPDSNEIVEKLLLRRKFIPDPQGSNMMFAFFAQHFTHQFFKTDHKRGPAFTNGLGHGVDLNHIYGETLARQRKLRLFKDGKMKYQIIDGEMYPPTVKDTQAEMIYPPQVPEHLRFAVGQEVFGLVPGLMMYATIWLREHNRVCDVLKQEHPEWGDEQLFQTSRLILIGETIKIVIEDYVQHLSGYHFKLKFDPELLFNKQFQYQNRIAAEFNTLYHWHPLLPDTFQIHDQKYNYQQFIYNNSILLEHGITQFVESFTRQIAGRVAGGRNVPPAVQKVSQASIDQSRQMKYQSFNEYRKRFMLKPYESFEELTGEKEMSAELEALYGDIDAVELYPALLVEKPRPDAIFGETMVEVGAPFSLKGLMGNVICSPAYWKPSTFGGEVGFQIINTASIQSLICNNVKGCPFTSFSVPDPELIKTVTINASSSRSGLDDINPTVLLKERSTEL

RAW 264.7 cells [7] = experiment: MTT cell viability, RAW 264.7 macrophages; type: cell-based, murine; conditions: for cytotoxic effect on RAW 264.7 viability: up to 100 µM, 24 h
Protocol: as §1, §2

[8] = tested on: LPS-induced •NO production in RAW 264.7 cells; experiment: LPS-induced NO production in RAW 264.7 (Griess); type: cell-based, murine; conditions: Mus musculus, RAW264.7; RAW 264.7, LPS 1 µg/mL; read-out: IC50 (LPS-dependent •NO production)
Protocol: RAW 264.7 cells were cultured in 96-well plates (35,000 cells/well) for 24 h and then pre-treated with different concentrations of each compound. After 2 h, LPS was added (final concentration 1 µg/mL) and the plates were incubated at 37 °C, in a humidified atmosphere of 5% CO2. After 22 h, 75 µL of cell supernatant was transferred to a 96-well plate and mixed with 75 µL of Griess reagent (1% sulfanilamide and 0.1% naphthylethylenediamine dihydrochloride in 2% H3PO4). The plate was incubated at room temperature for 10 min in the dark and then the absorbance was read at 540 nm using a microplate reader (Multiskan Thermo Fisher Scientific Oy, Vantaa, Finland).

[9] = biological target: T4, 20S proteasome isolated from erythrocytes (Homo sapiens, UniProt P28074); experiment: 20S proteasome inhibition (chymotrypsin-like activity); type: biochemical; design: purified 20S proteasome isolated from erythrocytes (Enzo Life Sciences); purchased Enzo Life Sciences; host or cells: erythrocytes; conditions: 100 µM
Protocol: Proteasome activity was measured by adapting a method described by Silva et al.. The substrate used to study chymotrypsin-like enzyme activity was Suc-Leu-Leu-Val-Tyr-AMC and the enzyme used was purified 20S proteasome isolated from erythrocytes (Enzo Life Sciences). […] The plate was incubated at 37 °C in the dark for 2 h. […] Lactacystin was used as positive control.

COX-1 [10] = biological target: T2, COX-1; experiment: COX fluorescent inhibitor screening assay, COX-1; type: biochemical
Protocol: (§3) The assay was performed using the COX fluorescent inhibitor screening assay kit (Cayman chemical, MI, USA), with some modifications. […] After 5 min of incubation at room temperature, 5 µL of 10-acetyl-3,7-dihydroxyphenoxazine (ADHP) and 20 µL of a solution containing arachidonic acid (0.5 mM) and KOH (2.5 mM) were added to each well.

COX-2 [11] = biological target: T3, COX-2; experiment: COX fluorescent inhibitor screening assay, COX-2; type: biochemical
Protocol: as §3

[12] = MTT cell viability, MRC-5 cells; type: cell-based; conditions: human, MRC-5 cells (human foetal lung fibroblasts)
Protocol: as §1, §2

[13] = Solubility in enzymatic assay buffer; type: physicochemical
[14] = biological target: T4, 20S proteasome isolated from erythrocytes; conditions: reported in literature; cited from earlier work

Row | SMILES | IC50 [1] [µM] | toxicity towards AGS cells (AGS cells) | cytotoxic effect on RAW 264.7 viability (RAW 264.7 cells [7]) | LOX inhibition at single concentration [1] | further results
1 | COC(=O)C(=Cc1ccccc1)NC(=O)C(CC(=O)O)NC(=O)C(C)c1ccc2cc(OC)ccc2c1 [Compound 2, Npx-L-Asp-Z-ΔPhe-OMe] | 67.4 | slightly cytotoxic |  |  | cytotoxic effect on RAW 264.7 viability (RAW 264.7 cells [2]): did not show any statistically significant cytotoxic effects; inhibition of LPS-induced production of •NO [3]: modest ability to inhibit; LOX inhibition at single concentration [4]: significantly inhibit the LOX enzyme to a similar level to naproxen; also recorded: high levels of lipoxygenase (LOX) inhibition; COX inhibition level (COX-1) (COX-1 [5]): modest levels of COX inhibition; COX inhibition level (COX-2) (COX-2 [6]): modest levels of COX inhibition
2 | COc1ccc2cc(C(C)C(=O)NC(Cc3c[nH]c4ccccc34)C(=O)NC(=Cc3ccccc3)C(=O)O)ccc2c1 [Compound 3, Npx-L-Trp-Z-ΔPhe-OH] | 55.9 | slightly cytotoxic | did not show any statistically significant cytotoxic effects | significantly inhibit the LOX enzyme to a similar level to naproxen | IC50 [8]: 64.7 µM; remaining activity at 100 µM ([9]; read-out: 20S proteasome enzyme activity remaining): 52%
3 | COc1ccc2cc(C(C)C(=O)NC(C)C(=O)NC(=Cc3ccccc3)C(=O)O)ccc2c1 [Compound 4, Npx-L-Ala-Z-ΔPhe-OH] | 55.7 | not toxic | did not show any statistically significant cytotoxic effects | significantly inhibit the LOX enzyme to a similar level to naproxen | inhibition at 25 µM (COX-1 [10]): 9%; inhibition at 25 µM (COX-2 [11]): 66%
4 | COc1ccc2cc(C(C)C(=O)NC(CCCCN)C(=O)NC(=Cc3ccccc3)C(=O)O)ccc2c1 [Compound 5, Npx-L-Lys-Z-ΔPhe-OH] |  | slightly cytotoxic | small cytotoxic effect | not able to inhibit LOX activity | viability at 24 h, 100 µM [12]: ~79%
5 | COc1ccc2cc(C(C)C(=O)NC(CCSC)C(=O)NC(=Cc3ccccc3)C(=O)O)ccc2c1 [Compound 6, Npx-L-Met-Z-ΔPhe-OH] | 60.3 | not toxic | did not show any statistically significant cytotoxic effects | significantly inhibit the LOX enzyme to a similar level to naproxen | 
6 | COC(=O)C(=Cc1ccccc1)NC(=O)C(Cc1ccc(O)cc1)NC(=O)C(C)c1ccc2cc(OC)ccc2c1 [Compound 7, Npx-L-Tyr-Z-ΔPhe-OMe] |  |  |  |  | IC50 (RAW 264.7 cells [7]; Mus musculus, RAW264.7, 24 h): 23.1 µM; IC50 (AGS cells; Homo sapiens, AGS): 10.9 µM; viability at 24 h, 100 µM [12]: ~87%; solubility in COX assay medium ([13]; Tris-HCl pH 8.0): insoluble in the assay medium; solubility in LOX assay buffer solution ([13]; phosphate buffer pH 9.0): insolubility in the assay buffer solution; 20S proteasome inhibition [9]: not able to inhibit the 20S proteasome
7 | CC=C(NC(=O)C(Cc1c[nH]c2ccccc12)NC(=O)C(C)c1ccc2cc(OC)ccc2c1)C(=O)O [Compound 8, Npx-L-Trp-Z-ΔAbu-OH] | 48.9 | not toxic | did not show any statistically significant cytotoxic effects | significantly inhibit the LOX enzyme to a similar level to naproxen | IC50 [8]: 84.4 µM
8 | COc1ccc2cc([C@H](C)C(=O)O)ccc2c1 [Naproxen, reference compound] |  |  |  |  | inhibition at 25 µM (COX-1 [10]): 42.3%; inhibition at 25 µM (COX-2 [11]): 61.5%; proteasome inhibition [14]: not be an inhibitor of proteasome
